According to PMC8694143 (Microbiology Spectrum, 2021):
Values after ≈ are worked out from the molar mass of the structure shown. “Also recorded” adds a separate entry of the source. Non-standard residues stand in square brackets, D forms with d. Residues, ends and D or L forms follow the SMILES beside them. No end group written: not given here. *: point of attachment. 5FAM = O=C1OC2(c3ccc(O)cc3Oc3cc(O)ccc32)c2ccc(C(=O)*)cc21

Legend:
MRSA ATCC 33592 = experiment: MIC determination in broth; format: cell-based, Staphylococcus aureus; settings: for MIC (μg/mL) for MRSA ATCC 33592: Table 1 and text; for MIC (μg/mL) for MRSA ATCC 33592 / MIC, S. aureus ATCC 33592 (SCCmec III): cation-adjusted MH broth, ~10^5 CFU/mL, 37°C, 16 h; for MIC, S. aureus ATCC 33592 (SCCmec III): Table S5, STIP3 variants, highest conc. tested 100 μg/mL, 2-fold dilution series; for Increase of the MIC relative to STIP3-29: D-Lys substituted variants
Method: (§1) M. luteus ATCC 4698, S. aureus ATCC 29213, a panel of 7 MRSA (ATCC MP-2) strains, which includes ATCC BAA-41, BAA-42, BAA-44, BAA-1683, BAA-2094, BAA-2313, and 33592, and a series of additional bacterial isolates from human and veterinary cases were used in this study (Table S6). Bacterial strains were routinely grown in lysogeny broth (LB: 10 g/L tryptone, 5 g/L yeast extract, 10 g/L NaCl) at 30°C (M. luteus) or 37°C (Staphylococcus spp.) prior to use in specific experiments described below.
(§2) The MICs were measured for bioactive peptides identified from the initial screen. Cation-adjusted Mueller-Hinton (MH) broth was used as the growth medium for MIC determination experiments. Bacterial cultures were diluted to an OD of 5 × 10^−4 (∼10^5 CFU/mL) in 200 μL MH broth mixed with peptides in a 2-fold dilution series arrayed in 96-well plates. Plates were incubated without shaking at 30 or 37°C depending on the organism.

MRSA ATCC BAA-1683 = experiment: MIC determination in broth; format: cell-based, Staphylococcus aureus; settings: STIP3 variants, highest conc. tested 100 μg/mL; cation-adjusted MH broth, ~10^5 CFU/mL, 2-fold dilution series, 37°C, 16 h
Method: as §1, §2

MRSA ATCC BAA-2094 = experiment: MIC determination in broth; format: cell-based, Staphylococcus aureus; settings: STIP3 variants, highest conc. tested 100 μg/mL; cation-adjusted MH broth, ~10^5 CFU/mL, 2-fold dilution series, 37°C, 16 h
Method: as §1, §2

MRSA ATCC BAA-2313 = experiment: MIC determination in broth; format: cell-based, Staphylococcus aureus; settings: STIP3 variants, highest conc. tested 100 μg/mL; cation-adjusted MH broth, ~10^5 CFU/mL, 2-fold dilution series, 37°C, 16 h
Method: as §1, §2

MRSA ATCC BAA-41 = experiment: MIC determination in broth; format: cell-based, Staphylococcus aureus; settings: STIP3 variants, highest conc. tested 100 μg/mL; cation-adjusted MH broth, ~10^5 CFU/mL, 2-fold dilution series, 37°C, 16 h
Method: as §1, §2

MRSA ATCC BAA-42 = experiment: MIC determination in broth; format: cell-based, Staphylococcus aureus; settings: STIP3 variants, highest conc. tested 100 μg/mL; cation-adjusted MH broth, ~10^5 CFU/mL, 2-fold dilution series, 37°C, 16 h
Method: as §1, §2

MRSA ATCC BAA-44 = experiment: MIC determination in broth; format: cell-based, Staphylococcus aureus; settings: STIP3 variants, highest conc. tested 100 μg/mL; cation-adjusted MH broth, ~10^5 CFU/mL, 2-fold dilution series, 37°C, 16 h
Method: as §1, §2

S. aureus ATCC 29213 = experiment: MIC determination in broth; format: cell-based, Staphylococcus aureus; settings: STIP3 variants, highest conc. tested 100 μg/mL; cation-adjusted MH broth, ~10^5 CFU/mL, 2-fold dilution series, 37°C, 16 h
Method: as §1, §2

[1] = Circular dichroism spectroscopy; format: physicochemical; settings: CD, 50% TFE (vol/vol), peptide 0.2 mg/mL, room temperature
Method: Peptides were dissolved in ultrapure water or 50% TFE (vol/vol) at a concentration of 0.2 mg/mL for spectroscopy. Spectra of samples in a 1 mm pathlength quartz cuvette were recorded from 180 to 260 nm at 0.5 nm steps using an Applied Photophysics Chirascan Plus CD spectrophotometer operating at room temperature.

M. luteus ATCC 4698 = experiment: MIC determination in broth; format: cell-based, Micrococcus luteus; settings: cation-adjusted MH broth, ~10^5 CFU/mL, 30°C, 48 h
Method: as §1, §2

S. aureus = experiment: MIC of STIP3-1 alanine variants in liquid broth; format: cell-based, Staphylococcus aureus; settings: at 200 μg/mL
Method: The MICs were measured for bioactive peptides identified from the initial screen. […] […] Plates were incubated without shaking at 30 or 37°C depending on the organism.

SspA [2] = experiment: SspA protease in 100 mM HEPES (pH 7.8); settings: Staphylococcus aureus (staphylococcal secreted protease), 37°C, up to 5 h
SspA [3] = experiment: SspA protease resuspended at 2 mg/mL in 100 mM HEPES (pH 7.8); settings: 37°C, up to 5 h

CC[C@@H](C)[C@@H](NC(=O)[C@@H](Cc1c[nH]c2ccccc12)NC(=O)[C@@H](CCCCN)NC(=O)[C@H](NC(=O)[C@@H](CC(C)C)NC(=O)CNC(=O)CNC(=O)[C@H](NC(=O)[C@H](N)[C@H](C)O)C(C)C)C(C)C)C(=O)N[C@H](CC(C)C)C(=O)N[C@H](CCCCN)C(=O)N[C@@H](C(=O)N[C@@H](C(=O)N[C@H](CCCCN)C(=O)N[C@H](CCCCN)C(=O)N[C@H](Cc1ccccc1)C(=O)N[C@H](C)C(N)=O)C(C)C)[C@H](C)O [D-STIP3-29] (H-[dT][dV]GG[dL][dV][dK][dW][dI][dL][dK][dT][dV][dK][dK][dF][dA]-NH2; N-terminus assumed)
MIC (μg/mL) for MRSA ATCC 33592 (MRSA ATCC 33592): 6.25 µg/mL
MIC, S. aureus ATCC 33592 (SCCmec III) (MRSA ATCC 33592): 6.25 µg/mL (≈ 3.31 µM)
MIC, S. aureus ATCC BAA 1683 (SCCmec IV) (MRSA ATCC BAA-1683): 6.25 µg/mL (≈ 3.31 µM)
MIC, S. aureus ATCC BAA 2094 (SCCmec V) (MRSA ATCC BAA-2094): 6.25 µg/mL (≈ 3.31 µM)
MIC, S. aureus ATCC BAA 2313 (SCCmec XI) (MRSA ATCC BAA-2313): 6.25 µg/mL (≈ 3.31 µM)
MIC, S. aureus ATCC BAA 41 (SCCmec II) (MRSA ATCC BAA-41): 6.25 µg/mL (≈ 3.31 µM)
MIC, S. aureus ATCC BAA 42 (SCCmec VI) (MRSA ATCC BAA-42): 6.25 µg/mL (≈ 3.31 µM)
MIC, S. aureus ATCC BAA 44 (SCCmec I) (MRSA ATCC BAA-44): 12.5 µg/mL (≈ 6.62 µM)
MIC, S. aureus ATCC 29213 (S. aureus ATCC 29213): 6.25 µg/mL (≈ 3.31 µM)
α-Helical content (%) [1]: 47%

CC[C@@H](C)[C@@H](NC(=O)[C@@H](Cc1c[nH]c2ccccc12)NC(=O)[C@@H](CCCCN)NC(=O)[C@H](NC(=O)[C@@H](CC(C)C)NC(=O)CNC(=O)CNC(=O)[C@H](NC(=O)[C@H](NC(=O)c1ccc2c(c1)C(=O)OC21c2ccc(O)cc2Oc2cc(O)ccc21)[C@H](C)O)C(C)C)C(C)C)C(=O)N[C@H](CC(C)C)C(=O)N[C@H](CCCCN)C(=O)N[C@@H](C(=O)N[C@@H](C(=O)N[C@H](CCCCN)C(=O)N[C@H](CCCCN)C(=O)N[C@H](Cc1ccccc1)C(=O)N[C@H](C)C(N)=O)C(C)C)[C@H](C)O [FAM-D-STIP3-29] (5FAM-[dT][dV]GG[dL][dV][dK][dW][dI][dL][dK][dT][dV][dK][dK][dF][dA]-NH2; C-terminus assumed)
α-Helical content (%) [1]: 55%

CC[C@H](C)[C@H](NC(=O)[C@H](Cc1c[nH]c2ccccc12)NC(=O)[C@H](CCCCN)NC(=O)[C@@H](NC(=O)[C@H](CC(C)C)NC(=O)CNC(=O)CNC(=O)[C@@H](NC(=O)[C@@H](NC(=O)c1ccc2c(c1)C(=O)OC21c2ccc(O)cc2Oc2cc(O)ccc21)[C@@H](C)O)C(C)C)C(C)C)C(=O)N[C@@H](CC(C)C)C(=O)N[C@@H](CCCCN)C(=O)N[C@H](C(=O)N[C@H](C(=O)N[C@@H](CCCCN)C(=O)N[C@@H](CCCCN)C(=O)N[C@@H](Cc1ccccc1)C(=O)N[C@@H](C)C(N)=O)C(C)C)[C@@H](C)O [FAM-L-STIP3-29] (5FAM-TVGGLVKWILKTVKKFA-NH2; C-terminus assumed)
α-Helical content (%) [1]: 72%

CC[C@H](C)[C@H](NC(=O)[C@H](Cc1c[nH]c2ccccc12)NC(=O)[C@H](CCCCN)NC(=O)[C@@H](NC(=O)[C@H](CC(C)C)NC(=O)CNC(=O)CNC(=O)[C@@H](NC(=O)[C@@H](N)[C@@H](C)O)C(C)C)C(C)C)C(=O)N[C@@H](CC(C)C)C(=O)N[C@H](CCCCN)C(=O)N[C@H](C(=O)N[C@H](C(=O)N[C@@H](CCCCN)C(=O)N[C@@H](CCCCN)C(=O)N[C@@H](Cc1ccccc1)C(=O)N[C@@H](C)C(N)=O)C(C)C)[C@@H](C)O [STIP3-29-D1] (H-TVGGLVKWIL[dK]TVKKFA-NH2; N-terminus assumed)
Increase of the MIC relative to STIP3-29 (MRSA ATCC 33592): 4 fold
MIC (μg/mL) for MRSA ATCC 33592 (MRSA ATCC 33592): 25 µg/mL
MIC, S. aureus ATCC 33592 (SCCmec III) (MRSA ATCC 33592): 25 µg/mL (≈ 13.2 µM)
MIC, S. aureus ATCC 29213 (S. aureus ATCC 29213): 12.5 µg/mL (≈ 6.62 µM)
α-Helical content (%) [1]: 51%

CC[C@H](C)[C@H](NC(=O)[C@H](Cc1c[nH]c2ccccc12)NC(=O)[C@@H](CCCCN)NC(=O)[C@@H](NC(=O)[C@H](CC(C)C)NC(=O)CNC(=O)CNC(=O)[C@@H](NC(=O)[C@@H](N)[C@@H](C)O)C(C)C)C(C)C)C(=O)N[C@@H](CC(C)C)C(=O)N[C@H](CCCCN)C(=O)N[C@H](C(=O)N[C@H](C(=O)N[C@@H](CCCCN)C(=O)N[C@H](CCCCN)C(=O)N[C@@H](Cc1ccccc1)C(=O)N[C@@H](C)C(N)=O)C(C)C)[C@@H](C)O [STIP3-29-D3] (H-TVGGLV[dK]WIL[dK]TVK[dK]FA-NH2; N-terminus assumed)
Increase of the MIC relative to STIP3-29 (MRSA ATCC 33592): inactivation
MIC (μg/mL) for MRSA ATCC 33592 (MRSA ATCC 33592): >100 µg/mL
MIC, S. aureus ATCC 33592 (SCCmec III) (MRSA ATCC 33592): > (The > symbol indicates that no inhibition was observed at 100 μg/mL for the STIP3 variants)
MIC, S. aureus ATCC 29213 (S. aureus ATCC 29213): > (The > symbol indicates that no inhibition was observed at 100 μg/mL for the STIP3 variants)
α-Helical content (%) [1]: 32%

AVGGLVKWILDTVKKFA [T1A]
MIC, M. luteus (M. luteus ATCC 4698): 12.5 µg/mL
Activity against S. aureus in nutrient broth (S. aureus): maintained activity

IIGTINDLIKWIADTVEKYKK
fragment found (SspA [2]): IIGTIND; also recorded: LIKWIAD
cleaved bond (SspA [3]): D-L and D-T
fragment found (SspA [3]): KYKK and LIKWIADTVE

IISTIGDLIKWIIDTVKKFKK
fragment found (SspA [2]): IISTIGDLIKWIID; also recorded: TVKKFKK
cleaved bond (SspA [3]): D-T

IISTIVEFVKLIAETIAKFMK
fragment found (SspA [2]): IISTIVE; also recorded: FVKLIAETIAKFMK; also recorded: TIAKFMK
cleaved bond (SspA [3]): E-T and E-F

IVETVGGLVKWILDTVKKFA
fragment found (SspA [2]): TVKKFA
cleaved bond (SspA [3]): D-T
fragment found (SspA [3]): IVE and TVGGLVKWILDTVKKFA and TVGGLVKWILD

MTKDIVETVGGLVKWILDTVKKFA
fragment found (SspA [3]): TVGGLVKWILDTVKKFA; also recorded: TVGGLVKWILD; also recorded: TVKKFA; also recorded: MTKDIVE
